Results as given in patent publication US9243247B2, “Composition for promoting apoptosis or inhibiting cell growth, comprising epstein-barr virus microrna” (Catholic University Industry Academic Cooperation Foundation, priority 2011, dated 2016).

What was measured:
Assay type in all cases: cell-based
AGS cell strain [1] = assay: Cell growth test (CCK-8 assay) after transfection of BART miRNA mimics; details: mimic 10 nM, 72 hours after transfection, relative to scrambled control (=1), n=9
Procedure, shortened: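 EBV-negative AGS gastric cells in RPMI1640 with 10% FBS, seeded 1×10^3 cells/well and transfected with synthetic mature BART miRNA mimics (10 nM; dose series 1, 3, 10, 30 nM) via G-fectin. Growth read by CCK-8 after 72 h (or over time), 2 h at 37 °C, absorbance measured.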

AGS cell strain [2] = assay: Effect on cell cycle (propidium iodide staining, FACS, sub G1); details: mimic 10 nM, 10 uM 5-FU 24 h after transfection, then 48 hours, relative to scrambled control (=1)
Procedure, shortened: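 AGS gastric cells (EBV-negative), 2×10^5 per well, were transfected with synthetic miRNA (10 nM). DNA was stained with propidium iodide, and the cell-cycle-altered fraction was measured by FACS.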

AGS cell strain [3] = assay: Measurement of apoptosis (Annexin V staining, FACS); details: for Relative Apoptotic cell: AGS, mimic 10 nM, 10 uM 5-FU 24 h after transfection, then 48 hours, Annexin V, relative to scrambled control (=1), n=9; for effect on cell growth and apoptosis (summary statement): mimics transfected to AGS, tumor cell strain not infected with EBV
Procedure, shortened: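 EBV-negative AGS cells (2×10^5/well) were transfected with 10 nM synthetic miRNA. Twenty-four hours later they received 10 uM 5-FU for 48 h at 37 °C. The apoptotic cell ratio was measured by PE Annexin V staining and FACS.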

| Substance | Relative Cell Growth (AGS cell strain [1]) | Relative Sub G1 (AGS cell strain [2]) | Relative Sub G1 (AGS cell strain [2]; listed as 20-5p) | Relative Apoptotic cell (AGS cell strain [3]) | Relative Apoptotic cell (AGS cell strain [3]; listed as 21-3p) | effect on cell growth and apoptosis (summary statement) (AGS cell strain [3]) | Relative Apoptotic cell (AGS cell strain [3]; listed as 22-5p) |
| --- | --- | --- | --- | --- | --- | --- | --- |
| BART20-5p: EBV BART miRNA mimic, double stranded RNA; sense SEQ NO: 73, antisense SEQ NO: 74 (sense UAGCAGGCAUGUCUUCAUUCC; antisense GGAAUGAAGACAUGCCUGCUA; chemistry not given here) | 1.245 | 1.379 | increased | 1.075 | – | – | – |
| BART21-3p: EBV BART miRNA mimic, double stranded RNA; sense SEQ NO: 35, antisense SEQ NO: 36 (sense CUAGUUGUGCCCACUGGUGUUU; antisense AAACACCAGUGGGCACAACUAG; chemistry not given here) | 1.215 | 0.965 | – | 1.155 | significantly higher | inhibit cell growth and promote apoptosis | – |
| BART21-5p: EBV BART miRNA mimic, double stranded RNA; sense SEQ NO: 33, antisense SEQ NO: 34 (sense UCACUAGUGAAGGCAACUAAC; antisense GUUAGUUGCCUUCACUAGUGA; chemistry not given here) | 1.304 | 1.087 | – | 0.9207 | – | – | – |
| BART22-3p: EBV BART miRNA mimic, double stranded RNA; sense SEQ NO: 55, antisense SEQ NO: 56 (sense UUACAAAGUCAUGGUCUAGUAGU; antisense ACUACUAGACCAUGACUUUGUAA; chemistry not given here) | 1.495 | 1.054 | – | 1.106 | – | – | – |
| BART22-5p: EBV BART miRNA mimic, double stranded RNA; sense SEQ NO: 53, antisense SEQ NO: 54 (sense UGCUAGACCCUGGAGUUGAACC; antisense GGUUCAACUCCAGGGUCUAGCA; chemistry not given here) | 1.529 | 0.9654 | – | 1.197 | – | inhibit cell growth and promote apoptosis | significantly higher |
